In patent publication US20150209327A1, “METHODS FOR THE TREATMENT OF OBESITY USING APREMILAST” (Celgene Corporation, priority 2014, published 2015):
“And” between values parts separate entries of the source, which are not always exact repeats. Identical values can stand only once.

Tests used:
PDE3 = PDE3 enzyme assay; type: biochemical; conditions: at 10 μM
Procedure: PDE1, 2, 3 and 5 enzyme assays were prepared as described by Hidaka and Asano. Biochem. Biophys. Acta., 1976, 429:485; see also Nicholsen et al., Trends Pharmaco. Sci., 1991, 12:19. The PDE6 enzyme assay was prepared according to Baehr et al., J. Biol. Chem., 1979, 254:11669 and Gillespie et al., Mol. Pharm., 1989, 36: 773. The PDE7 enzyme assay was prepared according to Bloom and Beavo. Proc. Natl. Acad. Sci. USA, 1996, 93:14188-92.

[1] = Psoriatic Arthritis (PsA) Phase 3 Data Pool: weight change; type: in vivo, human; conditions: for Weight % Change Category 0%, n (%) / Weight % Change Category <−20%, n (%) / Weight % Change Category >0% to ≦5%, n (%) / Weight % Change Category >5% to ≦10%, n (%) / Weight % Change Category >10% to ≦20%, n (%) / Weight % Change Category >20%, n (%) / Weight % Change Category ≧−5% to <0%, n (%) / Weight % Change Category ≧−10% to <−5%, n (%) / Weight % Change Category ≧−20% to <−10%, n (%): Subjects as Treated; for observed weight loss of greater than 10%, subjects n (%) / percentage of subjects with weight change of -10% to <−5%: Weeks 0 to 16
Excerpt: Apremilast has shown benefit of weight loss in both Phase 2 and Phase 3 Psoriatic Arthritis (PSA) and Psoriasis (PSOR) trials.

[2] = 20 mg BID, Apremilast-exposure Period, m = 943
[3] = 20 mg BID, End of Period (APR, apremilast exposure), Subjects as Initially Treated at Week 0
[4] = 20 mg BID, End of Period (PBC, Week 24), Subjects as Initially Treated at Week 0
[5] = 20 mg BID, End of Period (apremilast exposure), Apremilast Subjects as Treated
[6] = 20 mg BID, Week 52, Apremilast Subjects as Treated
[7] = 20 mg BID, Week 78, Apremilast Subjects as Treated
[8] = 30 mg BID, Apremilast-exposure Period, m = 944
[9] = 30 mg BID, End of Period (APR, apremilast exposure), Subjects as Initially Treated at Week 0
[10] = 30 mg BID, End of Period (PBC, Week 24), Subjects as Initially Treated at Week 0
[11] = 30 mg BID, End of Period (apremilast exposure), Apremilast Subjects as Treated
[12] = 30 mg BID, Week 52, Apremilast Subjects as Treated
[13] = 30 mg BID, Week 78, Apremilast Subjects as Treated

Compound: CCOc1cc([C@@H](CS(C)(=O)=O)N2C(=O)c3cccc(NC(C)=O)c3C2=O)ccc1OC [Apremilast, (+)-2-[1-(3-ethoxy-4-methoxyphenyl)-2-methylsulfonylethyl]-4-acetylaminoisoindoline-1,3-dione]
- % inhibition of PDE3 (PDE3): 20%
- weight decrease reported, subjects n (%) ([1]; 20 mg BID): 10 (1.0%) n (%)
- weight loss of greater than 10%, subjects n (%) ([1]; 20 mg BID, Apremilast-exposure Period): 42 (4.5%) n (%)
- Weight % Change Category 0%, n (%) [1, 2]: 74 (7.8) n (%)
- Weight % Change Category <−20%, n (%) [1, 2]: 1 (0.1) n (%)
- Weight % Change Category >0% to ≦5%, n (%) [1, 2]: 280 (29.7) n (%)
- Weight % Change Category >5% to ≦10%, n (%) [1, 2]: 42 (4.5) n (%)
- Weight % Change Category >10% to ≦20%, n (%) [1, 2]: 14 (1.5) n (%)
- Weight % Change Category >20%, n (%) [1, 2]: 0 n (%)
- Weight % Change Category ≧−5% to <0%, n (%) [1, 2]: 393 (41.7) n (%)
- Weight % Change Category ≧−10% to <−5%, n (%) [1, 2]: 98 (10.4) n (%)
- Weight % Change Category ≧−20% to <−10%, n (%) [1, 2]: 41 (4.3) n (%)
- Change From Baseline (kg) Median (Min, Max) [1, 3]: −0.60 (−44.3, 14.0) kg
- Weight, kg End of Period Mean ± SD [1, 3]: 84.38 ± 20.636 kg
- Change From Baseline (kg) Mean ± SD ([1]; 20 mg BID, End of Period (APR, apremilast exposure), Subjects as Initially Treated at Week 0, listed as APR): -1.13 kg and -1.13 ± 4.491 kg
- Change From Baseline (kg) Median (Min, Max) [1, 4]: −0.50 (−17.2, 11.5) kg
- Weight, kg End of Period Mean ± SD [1, 4]: 84.47 ± 20.734 kg
- Change From Baseline (kg) Mean ± SD ([1]; 20 mg BID, End of Period (PBC, Week 24), Subjects as Initially Treated at Week 0, listed as APR): -1.05 kg and -1.05 ± 3.366 kg
- Change From Baseline (kg) Mean ± SD [1, 5]: -1.16 ± 4.255 kg
- Change From Baseline (kg) Median (Min, Max) [1, 5]: −0.50 (−44.3, 14.0) kg
- Weight, kg Time Point Mean ± SD [1, 5]: 84.65 ± 20.541 kg
- Change From Baseline (kg) Median (Min, Max) [1, 6]: −1.00 (−26.0, 12.5) kg
- Weight, kg Time Point Mean ± SD [1, 6]: 84.89 ± 20.190 kg
- Change From Baseline (kg) Mean ± SD ([1]; 20 mg BID, Week 52, Apremilast Subjects as Treated, listed as APR): -1.25 kg and -1.25 ± 4.223 kg
- Change From Baseline (kg) Median (Min, Max) [1, 7]: −1.00 (−44.3, 14.0) kg
- Weight, kg Time Point Mean ± SD [1, 7]: 86.63 ± 19.721 kg
- Change From Baseline (kg) Mean ± SD ([1]; 20 mg BID, Week 78, Apremilast Subjects as Treated, listed as APR): -1.70 kg and -1.70 ± 6.192 kg
- Weight % Change Category 0%, n (%) ([1]; 20 mg BID, Weeks 0-16, m = 868): 122 (14.1) n (%)
- Weight % Change Category <−20%, n (%) ([1]; 20 mg BID, Weeks 0-16, m = 868): 0 n (%)
- Weight % Change Category >0% to ≦5%, n (%) ([1]; 20 mg BID, Weeks 0-16, m = 868): 260 (30.0) n (%)
- Weight % Change Category >5% to ≦10%, n (%) ([1]; 20 mg BID, Weeks 0-16, m = 868): 13 (1.5) n (%)
- Weight % Change Category >10% to ≦20%, n (%) ([1]; 20 mg BID, Weeks 0-16, m = 868): 1 (0.1) n (%)
- Weight % Change Category >20%, n (%) ([1]; 20 mg BID, Weeks 0-16, m = 868): 0 n (%)
- Weight % Change Category ≧−5% to <0%, n (%) ([1]; 20 mg BID, Weeks 0-16, m = 868): 431 (49.7) n (%)
- Weight % Change Category ≧−10% to <−5%, n (%) ([1]; 20 mg BID, Weeks 0-16, m = 868): 35 (4.0) n (%)
- Weight % Change Category ≧−20% to <−10%, n (%) ([1]; 20 mg BID, Weeks 0-16, m = 868): 6 (0.7) n (%)
- observed weight loss of greater than 10%, subjects n (%) ([1]; 20 mg BID): 6 (0.7%) n (%)
- percentage of subjects with weight change of -10% to <−5% ([1]; 20 mg BID): 4.0%
- weight decrease reported, subjects n (%) ([1]; 30 mg BID): 15 (1.5%) n (%)
- weight loss of greater than 10%, subjects n (%) ([1]; 30 mg BID, Apremilast-exposure Period): 36 (3.8%) n (%)
- Weight % Change Category 0%, n (%) [1, 8]: 71 (7.5) n (%)
- Weight % Change Category <−20%, n (%) [1, 8]: 0 n (%)
- Weight % Change Category >0% to ≦5%, n (%) [1, 8]: 272 (28.8) n (%)
- Weight % Change Category >5% to ≦10%, n (%) [1, 8]: 46 (4.9) n (%)
- Weight % Change Category >10% to ≦20%, n (%) [1, 8]: 8 (0.8) n (%)
- Weight % Change Category >20%, n (%) [1, 8]: 4 (0.4) n (%)
- Weight % Change Category ≧−5% to <0%, n (%) [1, 8]: 387 (41.0) n (%)
- Weight % Change Category ≧−10% to <−5%, n (%) [1, 8]: 120 (12.7) n (%)
- Weight % Change Category ≧−20% to <−10%, n (%) [1, 8]: 36 (3.8) n (%)
- Change From Baseline (kg) Median (Min, Max) [1, 9]: −1.00 (−23.0, 17.1) kg
- Weight, kg End of Period Mean ± SD [1, 9]: 83.61 ± 19.766 kg
- Change From Baseline (kg) Mean ± SD ([1]; 30 mg BID, End of Period (APR, apremilast exposure), Subjects as Initially Treated at Week 0, listed as APR): -1.26 kg and -1.26 ± 4.120 kg
- Change From Baseline (kg) Median (Min, Max) [1, 10]: −0.60 (−13.7, 11.4) kg
- Weight, kg End of Period Mean ± SD [1, 10]: 83.90 ± 19.670 kg
- Change From Baseline (kg) Mean ± SD ([1]; 30 mg BID, End of Period (PBC, Week 24), Subjects as Initially Treated at Week 0, listed as APR): -0.97 kg and -0.97 ± 3.016 kg
- Change From Baseline (kg) Mean ± SD [1, 11]: -0.96 ± 5.534 kg
- Weight, kg Time Point Mean ± SD [1, 11]: 84.09 ± 20.309 kg
- Change From Baseline (kg) Median (Min, Max) [1, 12]: −1.30 (−23.0, 11.8) kg
- Weight, kg Time Point Mean ± SD [1, 12]: 84.16 ± 19.253 kg
- Change From Baseline (kg) Mean ± SD ([1]; 30 mg BID, Week 52, Apremilast Subjects as Treated, listed as APR): -1.68 kg and -1.68 ± 4.049 kg
- Change From Baseline (kg) Median (Min, Max) [1, 13]: −2.00 (−16.0, 17.1) kg
- Weight, kg Time Point Mean ± SD [1, 13]: 83.53 ± 18.202 kg
- Change From Baseline (kg) Mean ± SD ([1]; 30 mg BID, Week 78, Apremilast Subjects as Treated, listed as APR): -2.14 kg and -2.14 ± 4.605 kg
- Weight % Change Category 0%, n (%) ([1]; 30 mg BID, Weeks 0-16, m = 857): 111 (13.0) n (%)
- Weight % Change Category <−20%, n (%) ([1]; 30 mg BID, Weeks 0-16, m = 857): 0 n (%)
- Weight % Change Category >0% to ≦5%, n (%) ([1]; 30 mg BID, Weeks 0-16, m = 857): 266 (31.0) n (%)
- Weight % Change Category >5% to ≦10%, n (%) ([1]; 30 mg BID, Weeks 0-16, m = 857): 10 (1.2) n (%)
- Weight % Change Category >10% to ≦20%, n (%) ([1]; 30 mg BID, Weeks 0-16, m = 857): 1 (0.1) n (%)
- Weight % Change Category >20%, n (%) ([1]; 30 mg BID, Weeks 0-16, m = 857): 3 (0.4) n (%)
- Weight % Change Category ≧−5% to <0%, n (%) ([1]; 30 mg BID, Weeks 0-16, m = 857): 424 (49.5) n (%)
- Weight % Change Category ≧−10% to <−5%, n (%) ([1]; 30 mg BID, Weeks 0-16, m = 857): 35 (4.1) n (%)
- Weight % Change Category ≧−20% to <−10%, n (%) ([1]; 30 mg BID, Weeks 0-16, m = 857): 7 (0.8) n (%)
- observed weight loss of greater than 10%, subjects n (%) ([1]; 30 mg BID): 7 (0.8%) n (%)
- percentage of subjects with weight change of -10% to <−5% ([1]; 30 mg BID): 4.1%
- weight decrease reported, subjects n (%) ([1]; all subjects who received apremilast): 25 (1.3%) n (%)
- body weight of the majority of subjects ([1]; regardless of duration of exposure): maintained their body weight within 0% and 5% of baseline
